In ChEMBL document CHEMBL1155243, “In vitro erythrocytic uptake studies of artemisinin and selected derivatives using LC-MS and 2D-QSAR analysis of uptake in parasitized erythrocytes” (Bioorg Med Chem, 2009):

How the values were obtained:
Settings in all cases: erythrocyte
[1] = Drug uptake in human type-A RBC at 3.55 uM after 2 hrs by LC-MS analysis; type: ADME, cell-based
[2] = Toxicity in human type-A RBC assessed as hematocrit at 3.55 uM after 2 hrs; type: cell-based
[3] = Drug uptake in human type-A erythrocytes infected with Plasmodium falciparum D6 at 3.55 uM after 2 hrs by LC-MS analysis; type: ADME, cell-based

Row | Structure (SMILES) | Drug uptake [1] [%] | Activity [2] [%] | Drug uptake [3] [%]
1 | CCCCCCCCCCCCCC[C@H]1C(=O)O[C@@H]2O[C@]3(C)CC[C@H]4[C@H](C)CC[C@@H]1[C@@]24O3 | 45.09 | 33 | 73
2 | C[C@@H]1CC[C@H]2[C@@H](CCCc3cc(C(F)(F)F)cc(C(F)(F)F)c3)[C@H](O)O[C@@H]3O[C@]4(C)CC[C@@H]1[C@]32OO4 | 40.43 | 33 | 71.76
3 | C[C@@H]1[C@@H](OC(=O)Nc2ccccc2)C[C@H]2[C@@H](C)C(=O)O[C@@H]3O[C@]4(C)CC[C@@H]1[C@]32OO4 | 32.18 | 33 | 51.04
4 | C[C@@H]1CC[C@H]2[C@@H](CCCc3ccc(S(C)(=O)=O)cc3)C(=O)O[C@@H]3O[C@]4(C)CC[C@@H]1[C@]32OO4 | 38.53 | 33 | 61.9
5 | C[C@@H]1CC[C@H]2[C@@H](CCCc3cc(C(F)(F)F)cc(C(F)(F)F)c3)C(=O)O[C@@H]3O[C@]4(C)CC[C@@H]1[C@]32OO4 | 41.07 | 33 | 72.09
6 | C[C@@H]1CC[C@H]2[C@@H](CN3C(=O)CCC3=O)C(=O)O[C@@H]3O[C@]4(C)CC[C@@H]1[C@]32OO4 | 36.57 | 33 | 66.06
7 | CCCC[C@H]1C(=O)O[C@@H]2O[C@]3(CC)CC[C@H]4[C@H](C)CC[C@@H]1[C@@]24OO3 | 39.11 | 33 | 62.5
8 | C[C@@H]1[C@@H](O)C[C@H]2[C@@H](C)C(=O)O[C@@H]3O[C@]4(C)CC[C@@H]1[C@]32OO4 | 33.1 | 33 | 53.9
9 | C[C@@H]1[C@@H](OC(=O)NC2CC2c2ccccc2)C[C@H]2[C@@H](C)C(=O)O[C@@H]3O[C@]4(C)CC[C@@H]1[C@]32OO4 (some centres undefined) | 32.31 | 33 | 51.63
10 | C[C@@H]1CC[C@H]2[C@@H](C)C(=O)O[C@@H]3O[C@@]4(C)CC[C@@H]1[C@]32OO4 [ARTEMISININ] | 34.68 | 33 | 61.07
11 | C[C@@H]1CC[C@H]2[C@@H](CCCc3ccc(N(C)C)cc3)C(=O)O[C@@H]3O[C@]4(C)CC[C@@H]1[C@]32OO4.Cl | 32.82 | 33 | 51.92
12 | CC(C)CN1C(=O)C[C@@H]2CC[C@@H](C)[C@@H]3CC[C@]4(C)OO[C@@]23[C@H]1O4 | 35.17 | 33 | 61.51
13 | C[C@@H]1[C@@H](OC(=O)Nc2cccc3ccccc23)C[C@H]2[C@@H](C)C(=O)O[C@@H]3O[C@]4(C)CC[C@@H]1[C@]32OO4 | 32.63 | 33 | 51.68
14 | C[C@@H]1CC[C@H]2[C@@H](CCCc3cc(C(F)(F)F)cc(C(F)(F)F)c3)CO[C@@H]3O[C@]4(C)CC[C@@H]1[C@]32OO4 | 42.11 | 33 | 72
15 | C[C@@H]1CC[C@H]2[C@@H](CCCc3ccc(O)cc3)C(=O)O[C@@H]3O[C@]4(C)CC[C@@H]1[C@]32OO4.Cl | 39.01 | 33 | 63.09
16 | C[C@@H]1CC[C@H]2[C@@H](CC(=O)O)C(=O)O[C@@H]3O[C@]4(C)CC[C@@H]1[C@]32OO4 | 33.92 | 33 | 54.23
17 | C[C@H]1C(=O)O[C@@H]2O[C@@]3(C)CC[C@@H]4[C@@]2(OO3)[C@H]1CC[C@]4(C)O | 32.99 | 33 | 53.89
18 | C[C@@H]1CC[C@H]2CC(=O)O[C@@H]3O[C@]4(CC(=O)O)CC[C@@H]1[C@@]23OO4 | 34.03 | 33 | 54.51
19 | C[C@@H]1CC[C@H]2CC(=O)O[C@@H]3O[C@]4(CCc5ccccc5)CC[C@@H]1[C@@]23OO4 | 38.96 | 33 | 62.34
20 | C[C@@H]1CC[C@H]2[C@@H](CCCc3cc(F)cc(F)c3)CO[C@@H]3O[C@]4(C)CC[C@@H]1[C@]32OO4 | 40.01 | 33 | 70.91
21 | C[C@@H]1CC[C@H]2CC(=O)N(CCc3ccccc3)[C@@H]3O[C@]4(C)CC[C@@H]1[C@@]23OO4 | 38.43 | 33 | 61.8
22 | C[C@@H]1CC[C@H]2[C@@H](CCCc3cccc(Cl)c3)[C@H](O)O[C@@H]3O[C@]4(C)CC[C@@H]1[C@]32OO4 | 40.13 | 33 | 71.21
23 | C[C@@H]1CC[C@H]2[C@@H](CN3C(=O)CSC3=O)C(=O)O[C@@H]3O[C@]4(C)CC[C@@H]1[C@]32OO4 | 33.94 | 33 | 57.69
